Measured values published in publication PMC10518255, “A first-in-class pan-lysyl oxidase inhibitor impairs stromal remodeling and enhances gemcitabine response and survival in pancreatic cancer” (Nature Cancer, 2023).
Several values for one entry are separate records, joined by “and”; a condition that tells them apart may be missing. Equal entries are not always repeated.

Experiments:
[1] = tested on: TKCC10 human PDX tumors; assay: TKCC10 human model, FITC-dextran perfusion (Extended Data Fig. 5f); format: in vivo, mouse; conditions: for FITC-dextran (10 kDa) signal quantification: Extended Data 5F, human PDXs, individual FOV
Protocol: Subcutaneous PDX studies were performed by implanting early passage PDX pieces (~4 mm^3) or TKCC10 CCs (1.5 × 10^6 cells per mouse in 100 μl PBS/Matrigel 1:1) into female (PDX) or male (TKCC10) 8-week-old immunocompromised nude Balb/c-Fox1nuAusb mice subcutaneously on the left flank. For the duration of the study, mice were kept in conventional caging with environmental enrichment, access to standard chow, water ad libitum and 12-h light–dark cycle at ambient temperature and humidity. Treatment began when tumors reached 150 mm^3, where each mouse was randomized into a treatment group and administered gemcitabine HCl (100 mg kg^−1 in saline) (Jomar Life Research) or vehicle control (0.9% saline) by i.p. injection twice weekly on day 2 and 4 of the treatment cycle until an ethical end point was reached. These included maximal tumor mass ≥10% of body weight, weight loss ≥20% from maximum body weight or tumor interfering with mobility and affecting access to food and water. […] Tumor size was monitored every second day by calipers. Tumor volume was calculated using the formula (length × width^2)/2. […]
FITC-dextran (10 kDa) was administered at 40 mg ml^−1 in saline via tail vain 2 h before culling. […] Images were quantified using Fiji Software for Integrated Density Signal.
(§1) Extended Data Fig. 5 PXS-5505 in combination with gemcitabine in vivo. a. […] Signal is defined as the enzyme activity in the aorta, while noise is measured in the presence of a high concentration (300 µM) BAPN to abolish any lysyl oxidase family activity. […] FITC-dextran (molecular weight: 10 kDa) signal quantification from KPC tumor end point from each treatment group (vehicle n = 3 biologically independent animals, PXS-5505 n = 5 biologically independent animals, Gem n = 5 biologically independent animals, PXS-5505 + Gem n = 5 biologically independent animals). […] P-values determined by Welchs t-test. […] Quantification of red birefringent (mature) collagen fibers from human PDXs at end point after 3 cycles of treatment, treated as indicated. […] P values determined by Welchs t-test. g. […]

[2] = tested on: APMA human PDX tumors; assay: APMA human PDX model, bulk modulus by unconfined compression (Extended Data Fig. 5j); format: in vivo, mouse; design: Bulk modulus (stiffness) by unconfined compression testing: unit: kPa (bulk elastic modulus, slope of stress–strain curve); conditions: for Bulk modulus (stiffness) by unconfined compression testing: Extended Data 5J, endpoint human PDX tumours (second model), individual animals
Protocol: Unconfined compression of in vivo tissue samples was carried out on 2–3-mm cross-sectional slices using a TA Instruments Dynamic Hybrid Rheometer (DHR-3, TA Instruments). Tissue samples were placed between upper and lower parallel plate geometries. A constant linear compressive rate of 5 µm s^−1 was applied to the samples and axial force (N) and gap (mm) were collected every 0.01 s. Data were processed and a stress–strain curve for each replicate was obtained. Bulk elastic modulus (kPa) was obtained as the gradient of the linear region of the stress–strain curve corrected for cross-sectional area of sample. Data points represent individual biological replicates.
Subcutaneous PDX studies were performed by implanting early passage PDX pieces (~4 mm^3) or TKCC10 CCs (1.5 × 10^6 cells per mouse in 100 μl PBS/Matrigel 1:1) into female (PDX) or male (TKCC10) 8-week-old immunocompromised nude Balb/c-Fox1nuAusb mice subcutaneously on the left flank. For the duration of the study, mice were kept in conventional caging with environmental enrichment, access to standard chow, water ad libitum and 12-h light–dark cycle at ambient temperature and humidity. […] Tumor size was monitored every second day by calipers. Tumor volume was calculated using the formula (length × width^2)/2. […]
as §1

Q: Which “FITC-dextran (10 kDa) signal quantification” value [1] does the source give for `Nc1ccn([C@@H]2O[C@H](CO)[C@@H](O)C2(F)F)c(=O)n1` [Gem, gemcitabine] here?
A: 94281 and 105741 and 104921 and 268246 and 141904 and 94336 and 85811 and 123546 and 103971 and 163288 and 111668 and 293663 and 289768 and 460793 and 155579 and 95059 and 92172 and 111389 and 85819 and 99312

Q: And the “FITC-dextran signal (tumor perfusion)” value ([1]; TKCC10 model)?
A: significantly reduced FITC signal

Q: And the tumor stiffness ([2]; APMA human PDX, three rounds of treatment)?
A: increase in tumor stiffness

Q: What about the “Bulk modulus (stiffness) by unconfined compression testing” value [2] of the same compound?
A: 269.794 and 256.26 and 76.734 and 111.802 and 206.587 and 133.731 and 307.593 and 168.407 and 179.416 and 246.898

Q: How did the “FITC-dextran (10 kDa) signal quantification” value [1] turn out when `Cl.Cl.NC/C=C(\F)CS(=O)(=O)c1cccc2cccnc12.O` [PXS-5505, (Z)-3-fluoro-4-(quinolin-8-ylsulfonyl)but-2-en-1-amine dihydrochloride monohydrate] was run?
A: 217149 and 705678 and 861620 and 155219 and 311738 and 1148786 and 651132 and 524503 and 645010 and 362873 and 336536 and 501004 and 447832 and 108773 and 210759 and 520769 and 406359 and 125675 and 423935 and 547504

Q: What about the “Bulk modulus (stiffness) by unconfined compression testing” value [2] of the same compound?
A: 1.617 and 12.779 and 4.886 and 20.468 and 19.194 and 15.624 and 4.142 and 7.216 and 19.443
